# According to ChEMBL document CHEMBL4190370, “Emerging New Targets for the Treatment of Resistant Fungal Infections” (J Med Chem, 2018):
# What was measured:
# [1] = Half life in human; format: ADME, organism-based; details: in vivo
# [2] = Oral bioavailability in rabbit; format: ADME, organism-based, Oryctolagus cuniculus; details: in vivo
# [3] = Inhibition of Saccharomyces cerevisiae IleRS
# [4] = Oral bioavailability in dog; format: ADME, organism-based, Canis lupus familiaris; details: in vivo
# [5] = Oral bioavailability in rat; format: ADME, organism-based; details: in vivo
# [6] = Inhibition of Saccharomyces cerevisiae LeuRs
# Candida [7] = experiment: Antifungal activity against Candida sp.; format: functional
# Candida [8] = experiment: Antifungal activity against Candida; format: functional
# [9] = molecular target: T1, Mediator of RNA polymerase II transcription subunit 15 (Candida glabrata (strain ATCC 2001 / CBS 138 / JCM 3761 / NBRC 0622 /NRRL Y-65) (Yeast) (Torulopsis glabrata), UniProt Q6FRS9); experiment: Binding affinity to Candida glabrata Gal11A KIX domain; parameters: species or system Nakaseomyces glabratus
# T1 sequence (Q6FRS9 whole entry): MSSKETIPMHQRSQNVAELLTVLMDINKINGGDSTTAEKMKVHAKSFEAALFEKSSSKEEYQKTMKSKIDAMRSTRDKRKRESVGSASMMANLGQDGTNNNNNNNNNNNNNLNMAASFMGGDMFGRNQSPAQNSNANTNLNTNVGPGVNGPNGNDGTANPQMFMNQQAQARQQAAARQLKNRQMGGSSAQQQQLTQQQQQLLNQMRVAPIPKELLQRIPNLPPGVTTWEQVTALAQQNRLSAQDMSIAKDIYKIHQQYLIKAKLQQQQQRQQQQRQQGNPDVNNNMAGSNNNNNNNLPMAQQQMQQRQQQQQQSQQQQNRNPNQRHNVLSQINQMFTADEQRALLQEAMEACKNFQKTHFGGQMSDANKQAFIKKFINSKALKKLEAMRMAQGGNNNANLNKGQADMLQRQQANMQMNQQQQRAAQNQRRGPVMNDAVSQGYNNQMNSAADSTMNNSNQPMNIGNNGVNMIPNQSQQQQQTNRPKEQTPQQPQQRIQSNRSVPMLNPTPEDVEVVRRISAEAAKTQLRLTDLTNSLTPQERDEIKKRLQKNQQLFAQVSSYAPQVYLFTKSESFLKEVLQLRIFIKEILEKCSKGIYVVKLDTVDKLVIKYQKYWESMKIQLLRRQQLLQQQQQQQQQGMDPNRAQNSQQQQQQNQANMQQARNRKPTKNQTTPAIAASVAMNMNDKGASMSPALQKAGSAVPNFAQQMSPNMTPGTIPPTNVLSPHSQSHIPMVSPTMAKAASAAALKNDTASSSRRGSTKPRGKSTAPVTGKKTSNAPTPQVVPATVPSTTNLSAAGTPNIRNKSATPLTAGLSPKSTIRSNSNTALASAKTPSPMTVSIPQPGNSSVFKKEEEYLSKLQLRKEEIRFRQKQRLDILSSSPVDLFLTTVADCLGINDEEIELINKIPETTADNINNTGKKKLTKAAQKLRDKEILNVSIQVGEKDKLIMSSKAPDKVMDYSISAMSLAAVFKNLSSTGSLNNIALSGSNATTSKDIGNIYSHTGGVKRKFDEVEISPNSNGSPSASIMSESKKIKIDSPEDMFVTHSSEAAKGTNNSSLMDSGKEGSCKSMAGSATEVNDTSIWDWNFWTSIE
# HepG2 = experiment: Cytotoxicity in human HepG2 cells; format: cell-based
smiles,measurement,setting,value
C=C1C[C@H](N)[C@H](C(=O)O)C1 [ICOFUNGIPEN],half-life,[1],7 h
same,bioavailability,[2],100%
same,Ki,[3],1000 µM
same,bioavailability,[4],100%
same,bioavailability,[5],100%
OB1OCc2cc(F)ccc21 [TAVABOROLE],IC50,[6],2.1 µM
CN(C)c1ccc(/C=C/c2cc(C(C)(C)C)[o+]c(C(C)(C)C)c2)cc1.[O-][Cl+3]([O-])([O-])[O-],MIC,Candida [7],0.5 to 1 µg/mL
same,MIC,Candida [8],0.2 to 6.25 µg/mL
N#CCC(=O)NNC(=S)Nc1ccc(Cl)c(Cl)c1,Kd,[9],0.32 µM
same,IC50,HepG2,100 µM
